This is an account of results in patent US20230391729A1, “SUCCINATE SALTS OF N-(3-(4-(3-(DIISOBUTYLAMINO)PROPYL)PIPERAZIN-1-YL)PROPYL)-1H-BENZO[D]IMIDAZOL-2-AMINE, PREPARATION THEREOF AND USE OF THE SAME” (ALZPROTECT, priority 2020, published 2023).

A word on the solubility: it is the concentration that dissolves in the medium under given conditions.

Where only a bound is given, the exact number is not on record here.

Common to all, as to assay type: physicochemical
Series [1] can be described thus: Polymorphic form stability of di-sulphate salt upon drying at 50° C.
The nature of series [2]: Storage stability of free base, di-sulphate salt and its aqueous solutions (background). To be noted: for stability of aqueous solution: glass vials, no preservative.
Series [3] is described as follows: Water solubility of di-sulphate salt (background).
A short description of series [4]: 7-day stability tests of the salt (XRPD, HPLC purity). To be noted: 50° C., 80° C. and ambient light. The method, then:
7-day stability tests were carried out as follows: 15 mg of salt was weighed into x3 2 mL vials. The vials were then placed at 40° C./75% RH, 80° C. and under ambient light; after 1 week, the solids were analysed by XRPD and HPLC purity (method A).

The nature of series [5]: Dynamic vapour sorption (DVS). The method, then:
Approximately 10-20 mg of sample was placed into a mesh vapour sorption balance pan and loaded into an Intrinsic dynamic vapour sorption balance by Surface Measurement Systems. The sample was subjected to a ramping profile from 40-90% relative humidity (RH) at 10% increments, maintaining the sample at each step until a stable weight had been achieved (dm/dt 0.004%, minimum step length 30 minutes, maximum step length 500 minutes) at 25° C. After completion of the sorption cycle, the sample was dried using the same procedure to 0% RH and then a second sorption cycle back to 40% RH. Two cycles were performed. The weight change during the sorption/desorption cycles were plotted, allowing for the hygroscopic nature of the sample to be determined. XRPD analysis was then carried out on any solid retained.

Series [6] in a line: Solubility assessment in unbuffered water and pH buffers. To be noted: thermodynamic from solid. The method, then: 100 μL of the appropriate buffer was added to form a slurry.

`CC(C)CN(CCCN1CCN(CCCNc2nc3ccccc3[nH]2)CC1)CC(C)C.O=S(=O)(O)O.O=S(=O)(O)O` [Form A, N-(3-(4-(3-(diisobutylamino)propyl)piperazin-1-yl)propyl)-1H-benzo[d]imidazol-2-amine di-sulphate salt]: in series [1] (di-sulphate salt), the “crystalline form stability upon drying” value is “converts back to polymorphic Form B”.

Regarding `CC(C)CN(CCCN1CCN(CCCNc2nc3ccccc3[nH]2)CC1)CC(C)C.O=S(=O)(O)O.O=S(=O)(O)O` [Form B, N-(3-(4-(3-(diisobutylamino)propyl)piperazin-1-yl)propyl)-1H-benzo[d]imidazol-2-amine di-sulphate], the “crystalline form stability upon drying” value in series [1] (di-sulphate) is reported as “partially loses its crystallinity”.

Regarding `CC(C)CN(CCCN1CCN(CCCNc2nc3ccccc3[nH]2)CC1)CC(C)C.O=S(=O)(O)O.O=S(=O)(O)O` [di-sulphate salt, N-(3-(4-(3-(diisobutylamino)propyl)piperazin-1-yl)propyl)-1H-benzo[d]imidazol-2-amine di-sulphate], the “stability of aqueous solution” value in series [2] (5° C.) is “up to 18 months”; in series [2] (25° C./60% RH), “up to 18 months”; in series [2] (40° C./75% RH), “up to 6 months”. Further, in series [2] (15-25° C.), the “stability to regular storage conditions” value is “at least 5 years”. The solubility in series [3] was above 100 mg/mL.

As for `CC(C)CN(CCCN1CCN(CCCNc2nc3ccccc3[nH]2)CC1)CC(C)C` [free base, N-(3-(4-(3-(diisobutylamino)propyl)piperazin-1-yl)propyl)-1H-benzo[d]imidazol-2-amine], in series [2], the long term stability entry is reported as “long term stability issues due to oxidative degradation”.

Turning to `CC(C)CN(CCCN1CCN(CCCNc2nc3ccccc3[nH]2)CC1)CC(C)C.O=C(O)CCC(=O)O.O=C(O)CCC(=O)O.O=C(O)CCC(=O)O` [tris-succinate salt Form 2, N-(3-(4-(3-(diisobutylamino)propyl)piperazin-1-yl)propyl)-1H-benzo[d]imidazol-2-amine tris-succinate salt], in series [4], the 7-day stability result was “stable”. Moreover, the “Post-DVS XRPD crystalline form” value in series [5] (after DVS cycle) is “remain as tris-succinate salt Form 2”. In addition, the DVS weight uptake result in series [5] (at 70% RH, 25° C.) is given as “ca. +0.1 wt. %”. In addition, the “DVS water uptake in equivalents” value in series [5] (up to 90% RH) is reported as “approximately 4.3 equiv. water”. Moreover, the DVS weight increase result in series [5] (up to 90% RH, 25° C.) is recorded as “ca. +9.92 wt. %”. In addition, the hygroscopicity result in series [5] (up to 90% relative humidity) is “not hygroscopic”. Besides, the solubility in series [6] (pH 1.2, simulated gastric fluid) is above 123 mg/mL; in series [6] (pH 4.5, aqueous buffer), above 92.4 mg/mL; in series [6] (pH 6.8, aqueous buffer) it was above 95.7 mg/mL.
